# From PubChem BioAssay (NCI)
#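 Interpolation was linear, between the two tested concentrations surrounding the appropriate level; five concentrations were tested over 48 hours in 96-well plates. TGI denotes the concentration required for complete inhibition of growth.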
# Columns and labels:
# Experiment in all cases: growth of human tumour cells (NCI), 48 h
# [1] = system: 786-0 renal
# [2] = system: A498 renal
# [3] = system: A549 NSCLC
# [4] = system: CAKI-1 renal
# [5] = system: DU-145 prostate
# [6] = system: HCC-2998 colon
# [7] = system: HCT-15 colon
# [8] = system: K-562 leukemia
# [9] = system: M14 melanoma
# [10] = system: MALME-3M melanoma
# [11] = system: MCF7 breast
# [12] = system: MDA-MB-435
# [13] = system: NCI-H23 lung
# [14] = system: NCI-H522 lung
# [15] = system: OVCAR-8 ovarian
# [16] = system: SF-295 CNS
# [17] = system: SK-OV-3 ovarian
# [18] = system: SNB-19 CNS
# [19] = system: T-47D breast
smiles,measurement,setting,value
COC(=O)CC(C#N)(OP1(=O)OC(c2ccccc2)C(C)N1C)c1ccccc1 (stereo not drawn),TGI,[1],83 µM
same,TGI,[2],> 100 µM
same,TGI,[3],> 100 µM
same,TGI,[4],69.3 µM
same,TGI,[5],> 100 µM
same,TGI,[6],31.6 µM
same,TGI,[7],> 100 µM
same,TGI,[8],78.7 µM
same,TGI,[9],> 100 µM
same,TGI,[10],> 100 µM
same,TGI,[11],> 100 µM
same,TGI,[12],53.7 µM
same,TGI,[13],97.9 µM
same,TGI,[14],> 100 µM
same,TGI,[15],67.1 µM
same,TGI,[16],> 100 µM
same,TGI,[17],> 100 µM
same,TGI,[18],> 100 µM
same,TGI,[19],96.7 µM
CCCn1c2ccccc2c2ccc3c(c21)C(=O)C=CC3=O,TGI,[1],3.27 µM
same,TGI,[2],> 10 µM
same,TGI,[3],> 10 µM
same,TGI,[4],6.1 µM
same,TGI,[5],> 10 µM
same,TGI,[6],> 10 µM
same,TGI,[7],4.7 µM
same,TGI,[8],2.24 µM
same,TGI,[9],> 6.11 µM
same,TGI,[10],4.02 µM
same,TGI,[11],4.59 µM
same,TGI,[12],5.29 µM
same,TGI,[13],5.99 µM
same,TGI,[14],3.54 µM
same,TGI,[15],> 6.96 µM
same,TGI,[16],> 10 µM
same,TGI,[17],> 10 µM
same,TGI,[18],> 10 µM
same,TGI,[19],5.44 µM
O=C(O)CC(CC(=O)O)C(=O)O,TGI,[1],> 100 µM
same,TGI,[2],> 100 µM
same,TGI,[3],> 100 µM
same,TGI,[4],> 100 µM
same,TGI,[5],> 100 µM
same,TGI,[6],> 100 µM
same,TGI,[7],> 100 µM
same,TGI,[8],> 100 µM
same,TGI,[9],> 100 µM
same,TGI,[10],> 100 µM
same,TGI,[11],> 100 µM
same,TGI,[12],> 100 µM
same,TGI,[13],> 100 µM
same,TGI,[14],> 100 µM
same,TGI,[15],> 100 µM
same,TGI,[16],> 100 µM
same,TGI,[17],> 100 µM
same,TGI,[18],> 100 µM
same,TGI,[19],> 100 µM
C/C(=N\NC(=S)N1CCCCC1)c1nc2ncccc2[nH]1,TGI,[1],> 100 µM
same,TGI,[2],65.5 µM
same,TGI,[3],96.4 µM
same,TGI,[4],> 100 µM
same,TGI,[5],86.3 µM
same,TGI,[6],> 100 µM
same,TGI,[7],> 100 µM
same,TGI,[8],43.7 µM
same,TGI,[9],47.7 µM
same,TGI,[10],> 100 µM
same,TGI,[11],14 µM
same,TGI,[12],35 µM
same,TGI,[13],57.5 µM
same,TGI,[14],30.7 µM
same,TGI,[15],34.8 µM
same,TGI,[16],88.7 µM
same,TGI,[17],> 100 µM
same,TGI,[18],> 100 µM
same,TGI,[19],42.4 µM
CC1=CC(C)C/C=C/C2C3OC3(C)C(C)C3C(Cc4c[nH]c5ccccc45)NC(=O)C23C(=O)C=CC(=O)C1O (stereo not drawn),TGI,[1],10.8 µM
same,TGI,[2],0.935 µM
same,TGI,[3],26.6 µM
same,TGI,[4],2.94 µM
same,TGI,[5],27.6 µM
same,TGI,[6],21.7 µM
same,TGI,[7],8.67 µM
same,TGI,[8],> 100 µM
same,TGI,[9],16.8 µM
same,TGI,[10],4.19 µM
same,TGI,[11],27.1 µM
same,TGI,[12],46.6 µM
same,TGI,[13],28.5 µM
same,TGI,[14],8.03 µM
same,TGI,[15],54.3 µM
same,TGI,[16],27.8 µM
same,TGI,[17],25.2 µM
same,TGI,[18],> 46.6 µM
same,TGI,[19],3.76 µM
COc1cc(/C=C2\C[C@H]3[C@@H]4CCc5cc(O)ccc5[C@H]4CC[C@]3(C)C2=O)cc(OC)c1OC,TGI,[1],57.7 µM
same,TGI,[2],87.5 µM
same,TGI,[3],31.8 µM
same,TGI,[4],26.6 µM
same,TGI,[5],17.5 µM
same,TGI,[6],35.9 µM
same,TGI,[7],> 100 µM
same,TGI,[8],24.8 µM
same,TGI,[9],37.7 µM
same,TGI,[10],13.4 µM
same,TGI,[11],> 100 µM
same,TGI,[12],48.6 µM
same,TGI,[13],28.5 µM
same,TGI,[14],3.95 µM
same,TGI,[15],30.1 µM
same,TGI,[16],27.4 µM
same,TGI,[17],48.3 µM
same,TGI,[18],47.1 µM
same,TGI,[19],38.5 µM
NS(=O)(=O)c1ccc(N=Nc2nc3[nH]c(=O)[nH]c(=O)c3[nH]2)cc1,TGI,[1],> 100 µM
same,TGI,[2],> 100 µM
same,TGI,[3],> 100 µM
same,TGI,[4],> 100 µM
same,TGI,[5],> 100 µM
same,TGI,[6],> 100 µM
same,TGI,[7],> 100 µM
same,TGI,[8],> 100 µM
same,TGI,[9],> 100 µM
same,TGI,[10],> 100 µM
same,TGI,[11],> 100 µM
same,TGI,[12],> 100 µM
same,TGI,[13],> 100 µM
same,TGI,[14],> 100 µM
same,TGI,[15],> 100 µM
same,TGI,[16],> 100 µM
same,TGI,[17],> 100 µM
same,TGI,[18],> 100 µM
same,TGI,[19],> 100 µM
